Measurements from patent publication US20260217699A1, “BERBERINE TAUROURSODEOXYCHOLATE COMPOSITIONS AND METHODS THEREOF” (SHENZHEN HIGHTIDE BIOPHARMACEUTICAL LTD., priority 2023, published 2026).

What was measured:
Type in all cases: in vivo, Sprague-Dawley rats
[1] = system: tyrosine hydroxylase (TH)-positive cells; assay: Immunofluorescence staining of TH in Str and SN brain regions; details: Mean ± SEM, N=15; for TH staining SN positive cells num.: Model 0.9 ± 0.5; for TH staining Str Fluorescence intensity: Model 11.1 ± 3.0
Protocol: (§1) After the rat was anesthetized, the abdominal cavity and thorax were cut open with straight scissors to expose the heart. The blood was first flushed out with normal saline perfusion, and then paraformaldehyde was used for initial perfusion fixation. The head was cut off, and the brain case was carefully opened with tweezers, and the brain tissue was removed and placed in paraformaldehyde solution and fix for 24 h; on the second day, took out the brain tissue and placed in 20% sucrose solution for 24 h; on the third day, took out the brain tissue and placed in 30% sucrose solution for 24 h; on the fourth day, took out the brain tissue and placed in 35% sucrose solution for 24 h (increase the time or concentration appropriately according to the condition of sugar deposition in the brain tissues); took out the brain tissue, embedded it in OCT embedding agent, and cut brain slices at the thickness of […] with a freezing microtome.
(§2) Immunohistochemical staining of TH and Iba-1 was performed on the sections. Sections were rewarmed for 30 min, closed at room temperature for 1 h with 50% serum+0.3% TritonX-100 in 50 μL per slice, shook off the slices, added primary antibody (diluted in PBS), overnight at 4° C.; rewarmed for 30 min; washed off primary antibody (PBS), 5 min×3 times; added secondary antibody (diluted in PBS) by backlighting, room temperature for 2 h; washed off secondary antibody (PBS), 5minx 3 times; added (4′,6-diamidino-2-phenylindole) (DAPI), and stayed at room temperature for 10 min; washed off DAPI, 5 min×3 times; added 70% glycerol to seal the slices to avoid air bubbles. Observed and took pictures under a microscope. Selected basically the same target brain area for each slice. Afterwards, ImageJ was used to count the signal number or area of the entire slice.
(§3) Experimental Methods: Seventy 180-220g SD male rats were selected and fed for one week for accumulation, and the PD model was established by stereotactic unilateral injection of 6-OHDA in the Substantia Nigra (SN) and Striatum (Str) regions and were randomly divided into five groups according to their body weights including Madopar group (Madopar, 50 mg/kg), BTUDC-L group (BTUDC, 100 mg/kg), BTUDC-M group (BTUDC, 500 mg/kg), and BTUDC-H group (BTUDC, 1000 mg/kg), with 10 animals in each group. Another 10 SD male rats were taken for sham operation (only 4 μL of 0.9% NS containing 0.02% ascorbic acid was given to the SN and Str brain regions during modeling) as the Sham group. The drug was administered by gavage once daily continuously for 21 days starting on the second day of modeling (first day of dosing, D1). General observation was made during the dosing period. At the end of the administration, the test articles were evaluated for tolerance in this model and in behavioral apomorphine—asymmetric rotation test, beam test, rotarod test and grip strength test, immunofluorescence staining (TH, Ibal), and cerebrospinal fluid inflammatory factor assays to evaluate the pharmacodynamic effects of the test articles. Inflammatory factors tested included interleukin 6 (1L-6), inflammatory factor […], Tumor Necrosis Factor alpha (TNF-α), inflammatory assays were done in a total of 4 groups included Sham, Model, Madopar and BTUDC-H groups.
(§4) Dosing volume: 10 mL/kg • 1. General observation: During the period of drug administration, body weight, food intake test and cage side observation were conducted every 3 days. • 2. Behavioral test: After 21 days of administration, behavioral test was carried out on the following day. • 3. […]

[2] = system: microglia (Iba-1) positive cells; assay: Immunofluorescence staining of Iba-1 in Str and SN brain regions; details: Mean ± SEM, N=15; for Iba-1 staining SN positive cells num.: Model 397.8 ± 21.2; for Iba-1 staining Str positive cells num.: Model 668.3 ± 13.0
Protocol: as §1, §2, §3, §4

IL-1β = assay: Elisa test of cerebrospinal fluid, IL-1β; details: rat cerebrospinal fluid; BTUDC-H 1000 mg/kg p.o. Qd 21 days; Mean ± SEM, n=10; Model 41.509 ± 1.298; p<0.05 vs Model
Description: (§5) The cerebrospinal fluid was directly extracted by inserting a needle through the foramen magnum, and the supernatant was collected after centrifugation for ELISA testing. The kit brand was Shanghai Enzyme Link. The product codes of IL-6, IL-1β, and TNF-α were m1064292, m1037361, and m1002859, respectively. Processed the sample according to the instructions of the ELISA detection kit, adjusted the blank well to zero, measured the absorbance (OD value) of each well sequentially at a wavelength of 450 nm, and calculated the sample concentration based on the standard curve and OD value. […]
(§6) Dosing volume: 10 mL/kg • 1. […] Histochemical test: After the behavioral test, the cerebrospinal fluid from each animal (N=10) was collected, centrifuged to collect the supernatant, and stored at −80° C. for Elisa test (IL-6, IL-1β, TNF-α), then the animals in each group (N=5) were randomly selected to take the modeling side of the striatum for the detection of neurotransmitters, and the rest of them (N=5) were subjected to cardiac perfusion, which was performed by the process of perfusion, fixation, sedimentation and slicing for immunofluorescence staining and photographed, and the number or area of signals were counted by ImageJ software. • 4. […]

IL-6 = assay: Elisa test of cerebrospinal fluid, IL-6; details: rat cerebrospinal fluid; BTUDC-H 1000 mg/kg p.o. Qd 21 days; Mean ± SEM, n=10; Model 159.058 ± 6.349; p<0.05 vs Model
Description: as §5, §6

TNF-α = assay: Elisa test of cerebrospinal fluid, TNF-α; details: rat cerebrospinal fluid; BTUDC-H 1000 mg/kg p.o. Qd 21 days; Mean ± SEM, n=10; Model 271.022 ± 8.145; p<0.05 vs Model
Description: as §5, §6

[3] = BTUDC-H 1000 mg/kg p.o. Qd 21 days, p<0.001 vs Model
[4] = BTUDC-L 100 mg/kg p.o. Qd 21 days, no significance mark
[5] = BTUDC-M 500 mg/kg p.o. Qd 21 days, no significance mark

COc1ccc2cc3[n+](cc2c1OC)CCc1cc2c(cc1-3)OCO2.C[C@H](CCC(=O)NCCS(=O)(=O)[O-])[C@H]1CC[C@H]2[C@@H]3[C@@H](O)C[C@@H]4C[C@H](O)CC[C@]4(C)[C@H]3CC[C@]12C [BTUDC, Berberine tauroursodeoxycholate]
TH staining SN positive cells num. [1, 3]: 12.7 ± 3.1
TH staining Str Fluorescence intensity [1, 3]: 65.8 ± 4.4
TH staining SN positive cells num. [1, 4]: 0.7 ± 0.3
TH staining Str Fluorescence intensity [1, 4]: 19.8 ± 3.5
TH staining SN positive cells num. [1, 5]: 2.0 ± 0.6
TH staining Str Fluorescence intensity ([1]; BTUDC-M 500 mg/kg p.o. Qd 21 days, p<0.001 vs Model): 32.6 ± 5.5
Iba-1 staining SN positive cells num. [2, 3]: 270.0 ± 21.5
Iba-1 staining Str positive cells num. [2, 3]: 556.5 ± 16.2
Iba-1 staining SN positive cells num. [2, 4]: 413.7 ± 42.8
Iba-1 staining Str positive cells num. ([2]; BTUDC-L 100 mg/kg p.o. Qd 21 days, p<0.01 vs Model): 601.7 ± 14.2
Iba-1 staining SN positive cells num. [2, 5]: 393.1 ± 20.1
Iba-1 staining Str positive cells num. ([2]; BTUDC-M 500 mg/kg p.o. Qd 21 days, p<0.01 vs Model): 602.7 ± 9.1
IL-1β Conc. (IL-1β): 37.251 ± 1.005 pg/mL
IL-6 Conc. (IL-6): 147.095 ± 1.871 pg/mL
TNF-α Conc. (TNF-α): 250.424 ± 9.186 pg/mL
